Measurements: paper PMC10740580, “Benzothiazole-Phthalimide Hybrids as Anti-Breast Cancer and Antimicrobial Agents” (Antibiotics, 2023)
In brackets after ≈: the same amount, converted by molar mass.

Key:
Candida albicans 10231 = test: Antifungal microdilution, C. albicans ATCC 10231; assay type: cell-based; details: microdilution CLSI M27-A3, 48 h, 37 °C
Procedure: In accordance with CLSI guidelines, compounds 3a–h were tested against a variety of fungal strains (Candida albicans 10231, Candida albicans 90028, Candida glabrata 15126, and Candida parapsilosis 22019) belonging to the ATCC collection. Amphotericin B was utilized as a reference drug. A similar trend of results, or even better than that obtained against bacteria, was assessed against fungal strains. […] Also, in this case, compound 3h emerged as the best of the series, with MICs of 16 μg/mL against Candida glabrata and Candida parapsilosis strains and 32 μg/mL against Candida albicans strains.
A microdilution technique described by the Clinical and Laboratory Standards Institute (CLSI, M27-A3) was used to assess the antifungal activity. The following fungal strains, belonging to the ATCC collection and available as freeze-dried discs, were used: C. albicans ATCC 10231, C. albicans ATCC 90028, C. glabrata ATCC 15126, and C. parapsilosis ATCC 22019. Stock solutions were prepared and preserved with purity as previously described for the antibacterial studies. Each yeast strain’s pre-cultures were made in Sabouraud broth (SAB) and allowed to grow until they stopped at 37 °C. By using a spectrophotometric technique (530 nm, range 0.12–0.15), the turbidity of the yeast stock suspension was calibrated to 0.5 McFarland Standard. Next, the standardized suspension was diluted first at 1:50 with SAB and then at 1:20 in the same medium to have […]. A total of 100 µL of inoculum was seeded into each well. As a control for growth, several wells containing only inoculated broth were prepared. The plates were incubated for 48 h at 37 °C, and the MIC values were calculated as the final well with no fungal growth. […] MIC values were observed based on the absence of fungal growth in the final well. The MICs were calculated by conducting the antifungal test three times in duplicate. As a control, amphotericin B was used.

angiogenesis = details: previous study, reduced side effects compared to thalidomide; cited from earlier work
gram-positive bacteria = test: Broth microdilution, gram-positive bacteria; assay type: cell-based; details: read-out: MIC against gram-positive bacteria
Text: (§1) Compounds 3a–h were examined in accordance with the Clinical Laboratory Standards Institute (CLSI) recommendations, by means of the broth microdilution method, against gram-positive bacteria (Staphylococcus aureus 25923, Staphylococcus aureus 29213, Staphylococcus aureus 43300, Enterococcus faecalis 29212) and gram-negative bacteria (Escherichia coli 25922, Klebsiella pneumoniae 13883, Pseudomonas aeruginosa 27853) belonging to the ATCC collection, using levofloxacin as a reference drug. Table 3 lists the results, expressed as MIC (µg/mL). […] The lack of activity observed for compound 3d could be conceivably due to its poor solubility in the culture medium containing the inoculum.
Following the recommendations of the CLSI (Clinical and Laboratory Standards Institute, 2012), the broth microdilution method was used to determine the in vitro minimum inhibitory concentrations (MICs, µg/mL).. The concentration of the investigated compounds was set to its highest value to create stock solutions. Then, the stock solutions were diluted 1:10 with Cation-Adjusted Mueller Hinton Broth (Oxoid, Milan, Italy). After that, a series of concentrations from 512 µg/mL to […] were obtained in the wells by performing two-fold serial dilutions in the appropriate test medium. The diluent used to create the stock solution was 100% DMSO. […]

gram-negative bacteria = test: Broth microdilution, gram-negative bacteria; assay type: cell-based; details: read-out: MIC against gram-negative bacteria
Text: as §1
Following the recommendations of the CLSI (Clinical and Laboratory Standards Institute, 2012), the broth microdilution method was used to determine the in vitro minimum inhibitory concentrations (MICs, µg/mL).. The concentration of the investigated compounds was set to its highest value to create stock solutions. Then, the stock solutions were diluted 1:10 with Cation-Adjusted Mueller Hinton Broth (Oxoid, Milan, Italy). After that, a series of concentrations from 512 µg/mL to […] were obtained in the wells by performing two-fold serial dilutions in the appropriate test medium. The diluent used to create the stock solution was 100% DMSO. We used the following bacterial strains from the ATCC collection that were available as freeze-dried discs: gram-positive strains such as S. aureus ATCC 25923, 29213, and 43300, and E. faecalis ATCC 29212, and gram-negative ones such as E. coli ATCC 25922, K. pneuomoniae ATCC 13883, and P. aeruginosa ATCC 27853. To preserve the purity of cultures and to allow their reproducibility, cryovials of all microbial strains were set up in the medium and stored at −80 °C. Mueller Hinton Broth (MHB) was used to prepare pre-cultures of each bacterial strain, which were then incubated for 3–5 h at 37 °C. […]

SMILES: O=C1c2ccccc2C(=O)N1c1nc2ccccc2s1 [3a, 2-(1,3-benzothiazol-2-yl)-1H-isoindole-1,3(2H)-dione]
- MIC (Candida albicans 10231): 64 µg/mL (≈ 228 µM)
- antiangiogenic activity (angiogenesis): performed as antiangiogenic agents

SMILES: COc1cc2nc(N3C(=O)c4ccccc4C3=O)sc2cc1OC [3f, 2-[5,6-Dimethoxy-1,3-benzothiazol-2-yl]-1H-isoindole-1,3(2H)-dione]
- MIC (Candida albicans 10231): 32 µg/mL (≈ 94 µM)
- MIC (gram-positive bacteria): 32 to 64 µg/mL (≈ 94 to 188 µM)
- MIC (gram-negative bacteria): 64 µg/mL (≈ 188 µM)

SMILES: COc1ccc2nc(N3C(=O)c4ccccc4C3=O)sc2c1 [3e, 2-[6-Methoxy-1,3-benzothiazol-2-yl]-1H-isoindole-1,3(2H)-dione]
- MIC (Candida albicans 10231): 64 µg/mL (≈ 206 µM)

SMILES: O=C1c2ccccc2C(=O)N1c1nc2ccc(Oc3ccccc3)cc2s1 [3h, 2-[6-Phenoxy-1,3-benzothiazol-2-yl]-1H-isoindole-1,3(2H)-dione]
- MIC (Candida albicans 10231): 32 µg/mL (≈ 85.9 µM)
- MIC (gram-negative bacteria): 32 µg/mL (≈ 85.9 µM)

SMILES: O=C1c2ccccc2C(=O)N1c1nc2ccc(C(F)(F)F)cc2s1 [3c, 2-[6-Trifluoromethyl-1,3-benzothiazol-2-yl]-1H-isoindole-1,3(2H)-dione]
- MIC (Candida albicans 10231): 64 µg/mL (≈ 184 µM)

SMILES: Cc1ccc2nc(N3C(=O)c4ccccc4C3=O)sc2c1 [3d, 2-[6-Methyl-1,3-benzothiazol-2-yl]-1H-isoindole-1,3(2H)-dione]
- MIC (Candida albicans 10231): > 512 µg/mL
- antiangiogenic activity (angiogenesis): performed as antiangiogenic agents

SMILES: O=C1c2ccccc2C(=O)N1c1nc2ccc(F)cc2s1 [3b, 2-(6-Fluoro-1,3-benzothiazol-2-yl)-1H-isoindole-1,3(2H)-dione]
- MIC (Candida albicans 10231): 64 µg/mL (≈ 215 µM)

SMILES: O=C1c2ccccc2C(=O)N1c1nc2ccc(O)cc2s1 [3g, 2-[6-Hydroxy-1,3-benzothiazol-2-yl]-1H-isoindole-1,3(2H)-dione]
- MIC (Candida albicans 10231): 32 µg/mL (≈ 108 µM)
- MIC (gram-positive bacteria): 32 to 64 µg/mL (≈ 108 to 216 µM)
- MIC (gram-negative bacteria): 64 µg/mL (≈ 216 µM)
